PMC3914206

Experiments:
Format in all cases: binding
Design in all cases: KINOMEscan: ABL1(F317L)-phosphorylated / KINOMEscan: ABL1(H396P)-nonphosphorylated / KINOMEscan: ABL1(H396P)-phosphorylated / KINOMEscan: ABL1(M351T)-phosphorylated / KINOMEscan: ABL1(T315I)-phosphorylated / KINOMEscan: ABL1-nonphosphorylated / KINOMEscan: ABL1-phosphorylated / KINOMEscan: ACVR2A / KINOMEscan: ACVR2B / KINOMEscan: ADCK3 / KINOMEscan: ADCK4 / KINOMEscan: AKT1 / KINOMEscan: AKT3 / KINOMEscan: ALK / KINOMEscan: ARK5 / KINOMEscan: AURKA / KINOMEscan: AURKC / KINOMEscan: BIKE / KINOMEscan: BMPR1A / KINOMEscan: BMPR1B / KINOMEscan: BMX / KINOMEscan: BRK / KINOMEscan: BRSK1 / KINOMEscan: BRSK2 / KINOMEscan: CAMK1 / KINOMEscan: CAMK1D / KINOMEscan: CAMK1G / KINOMEscan: CAMK2A / KINOMEscan: CAMK2B / KINOMEscan: AAK1 / KINOMEscan: CAMK2D / KINOMEscan: CAMK2G / KINOMEscan: ABL1(F317I)-nonphosphorylated / KINOMEscan: ABL1(F317I)-phosphorylated / KINOMEscan: ABL1(F317L)-nonphosphorylated: unit: % Ctrl
panel of 442 kinases [1] = molecular target: T1, panel of 442 kinases (Homo sapiens, UniProt O14936); conditions: Compound Concentration 10 µM
T1 construct: purchased KINOMEscan
T1 sequence (O14936 1-926): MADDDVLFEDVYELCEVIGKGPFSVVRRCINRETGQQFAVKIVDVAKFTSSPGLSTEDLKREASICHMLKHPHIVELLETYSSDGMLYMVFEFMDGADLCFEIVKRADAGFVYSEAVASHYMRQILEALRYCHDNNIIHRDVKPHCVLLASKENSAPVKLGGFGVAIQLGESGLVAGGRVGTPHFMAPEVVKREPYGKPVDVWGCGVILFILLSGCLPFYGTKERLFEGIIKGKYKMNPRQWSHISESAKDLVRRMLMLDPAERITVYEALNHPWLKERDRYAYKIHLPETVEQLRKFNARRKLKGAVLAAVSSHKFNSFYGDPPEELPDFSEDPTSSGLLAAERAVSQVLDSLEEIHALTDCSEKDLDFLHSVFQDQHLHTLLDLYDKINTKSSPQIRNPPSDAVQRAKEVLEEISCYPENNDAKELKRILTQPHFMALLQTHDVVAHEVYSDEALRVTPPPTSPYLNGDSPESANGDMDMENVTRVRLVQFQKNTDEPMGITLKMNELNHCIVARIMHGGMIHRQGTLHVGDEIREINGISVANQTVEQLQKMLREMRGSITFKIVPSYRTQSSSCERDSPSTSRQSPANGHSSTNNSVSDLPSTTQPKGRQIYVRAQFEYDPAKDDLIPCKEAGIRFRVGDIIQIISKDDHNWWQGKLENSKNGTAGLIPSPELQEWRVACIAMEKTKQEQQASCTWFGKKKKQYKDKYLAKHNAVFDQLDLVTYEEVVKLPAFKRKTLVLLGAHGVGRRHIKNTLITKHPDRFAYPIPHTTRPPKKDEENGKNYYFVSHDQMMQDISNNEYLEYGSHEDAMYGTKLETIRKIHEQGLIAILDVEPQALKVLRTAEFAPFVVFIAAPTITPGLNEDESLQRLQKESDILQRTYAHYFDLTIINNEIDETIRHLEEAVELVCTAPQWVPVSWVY
Description: (§1) We assessed the selectivity of members of this scaffold using the KINOMEscan methodology across a near comprehensive panel of 442 kinases [[18,27]].

panel of 442 kinases [2] = molecular target: T2, panel of 442 kinases (Homo sapiens, UniProt P31749); conditions: Compound Concentration 10 µM
T2 construct: purchased KINOMEscan
Description: as §1

panel of 442 kinases [3] = molecular target: T3, panel of 442 kinases (Homo sapiens, UniProt Q02763); conditions: kinase TIE2; compound concentration 10 µM
T3 construct: purchased KINOMEscan
Description: as §1

T2 sequence (P31749 whole entry): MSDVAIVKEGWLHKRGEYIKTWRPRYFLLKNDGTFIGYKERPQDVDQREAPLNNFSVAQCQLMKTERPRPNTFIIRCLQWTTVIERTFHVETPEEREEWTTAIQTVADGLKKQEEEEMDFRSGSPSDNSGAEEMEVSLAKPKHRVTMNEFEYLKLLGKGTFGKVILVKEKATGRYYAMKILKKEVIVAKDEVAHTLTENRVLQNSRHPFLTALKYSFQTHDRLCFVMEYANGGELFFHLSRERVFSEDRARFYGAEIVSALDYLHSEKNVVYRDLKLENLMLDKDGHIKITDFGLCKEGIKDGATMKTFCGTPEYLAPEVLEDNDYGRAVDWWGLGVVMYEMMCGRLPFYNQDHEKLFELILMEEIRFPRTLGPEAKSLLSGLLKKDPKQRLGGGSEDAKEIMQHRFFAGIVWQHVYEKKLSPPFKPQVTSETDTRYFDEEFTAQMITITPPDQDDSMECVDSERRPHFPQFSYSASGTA
T3 sequence (Q02763 23-1124): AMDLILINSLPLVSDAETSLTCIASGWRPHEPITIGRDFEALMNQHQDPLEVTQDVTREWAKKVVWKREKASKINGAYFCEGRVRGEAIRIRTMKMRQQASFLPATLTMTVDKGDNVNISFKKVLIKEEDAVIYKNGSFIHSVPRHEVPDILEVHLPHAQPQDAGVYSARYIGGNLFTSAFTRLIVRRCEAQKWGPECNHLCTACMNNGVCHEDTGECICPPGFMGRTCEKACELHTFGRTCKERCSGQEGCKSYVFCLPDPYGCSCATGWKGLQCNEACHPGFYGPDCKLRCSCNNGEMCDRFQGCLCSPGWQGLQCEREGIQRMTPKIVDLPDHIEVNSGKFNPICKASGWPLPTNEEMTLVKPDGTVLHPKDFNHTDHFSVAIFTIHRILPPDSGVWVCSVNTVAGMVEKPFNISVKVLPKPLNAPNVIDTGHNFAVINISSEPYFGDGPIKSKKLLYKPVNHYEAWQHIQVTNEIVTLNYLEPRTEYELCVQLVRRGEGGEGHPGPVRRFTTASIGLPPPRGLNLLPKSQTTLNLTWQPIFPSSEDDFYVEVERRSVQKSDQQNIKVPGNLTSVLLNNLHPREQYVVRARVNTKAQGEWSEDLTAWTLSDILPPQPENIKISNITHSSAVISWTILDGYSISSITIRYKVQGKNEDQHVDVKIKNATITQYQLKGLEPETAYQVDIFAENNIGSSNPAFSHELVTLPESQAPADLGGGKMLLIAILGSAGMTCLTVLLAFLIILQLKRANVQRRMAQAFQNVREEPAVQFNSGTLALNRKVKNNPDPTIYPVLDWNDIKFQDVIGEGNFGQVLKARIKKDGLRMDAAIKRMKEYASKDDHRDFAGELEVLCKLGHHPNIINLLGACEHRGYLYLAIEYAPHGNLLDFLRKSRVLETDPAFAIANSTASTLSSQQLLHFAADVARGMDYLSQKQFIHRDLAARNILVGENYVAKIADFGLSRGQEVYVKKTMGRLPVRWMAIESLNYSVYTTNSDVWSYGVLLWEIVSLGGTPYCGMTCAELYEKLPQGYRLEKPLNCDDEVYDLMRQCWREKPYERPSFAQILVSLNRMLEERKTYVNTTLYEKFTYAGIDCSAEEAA

SMILES: COc1cc(C(=O)N2CCC(N3CCN(C)CC3)CC2)ccc1Nc1ncc2c(n1)N1CCc3cccc(c31)C(=O)N2C [Compound 24]
- KINOMEscan: CASK (panel of 442 kinases [1]): 100
- KINOMEscan: AKT1 (panel of 442 kinases [2]): 90
- % Ctrl, TIE2 (panel of 442 kinases [3]): 79 % Ctrl

SMILES: CCOc1cc(C(=O)N2CCC(N3CCN(C)CC3)CC2)ccc1Nc1ncc2c(n1)N(C1CCCC1)c1ccccc1C(=O)N2C [Compound 26]
- KINOMEscan: CASK (panel of 442 kinases [1]): 98
- KINOMEscan: AKT1 (panel of 442 kinases [2]): 100
- % Ctrl, TIE2 (panel of 442 kinases [3]): 100 % Ctrl

SMILES: COc1cc(C(=O)N2CCC(N3CCN(C)CC3)CC2)ccc1Nc1ncc2c(n1)N(C1CCCC1)c1ccccc1C(=O)N2C [Compound 25, 11-cyclopentyl-2-((2-methoxy-4-(4-(4-methylpiperazin-1-yl)piperidine-1-carbonyl)phenyl)amino)-5-methyl-5H-benzo[e]pyrimido[5,4-b][1,4]diazepin-6(11H)-one]
- KINOMEscan: CASK (panel of 442 kinases [1]): 100
- KINOMEscan: AKT1 (panel of 442 kinases [2]): 100
- % Ctrl, TIE2 (panel of 442 kinases [3]): 100 % Ctrl

SMILES: COc1cc(C(=O)N2CCC(N3CCN(C)CC3)CC2)ccc1Nc1ncc2c(n1)N(C)c1ccccc1C(=O)N2C [15 (LRRK2-IN-1)]
- KINOMEscan: CASK (panel of 442 kinases [1]): 85
- KINOMEscan: AKT1 (panel of 442 kinases [2]): 79
- % Ctrl, TIE2 (panel of 442 kinases [3]): 100 % Ctrl
